Target: T1, rASCT2 (Rattus norvegicus, UniProt D3ZJ25)
T1 construct: expressed in transfected cells; host or cells: HEK293 (ATCC CRL-11268), transient transfection
T1 sequence (D3ZJ25 1-555): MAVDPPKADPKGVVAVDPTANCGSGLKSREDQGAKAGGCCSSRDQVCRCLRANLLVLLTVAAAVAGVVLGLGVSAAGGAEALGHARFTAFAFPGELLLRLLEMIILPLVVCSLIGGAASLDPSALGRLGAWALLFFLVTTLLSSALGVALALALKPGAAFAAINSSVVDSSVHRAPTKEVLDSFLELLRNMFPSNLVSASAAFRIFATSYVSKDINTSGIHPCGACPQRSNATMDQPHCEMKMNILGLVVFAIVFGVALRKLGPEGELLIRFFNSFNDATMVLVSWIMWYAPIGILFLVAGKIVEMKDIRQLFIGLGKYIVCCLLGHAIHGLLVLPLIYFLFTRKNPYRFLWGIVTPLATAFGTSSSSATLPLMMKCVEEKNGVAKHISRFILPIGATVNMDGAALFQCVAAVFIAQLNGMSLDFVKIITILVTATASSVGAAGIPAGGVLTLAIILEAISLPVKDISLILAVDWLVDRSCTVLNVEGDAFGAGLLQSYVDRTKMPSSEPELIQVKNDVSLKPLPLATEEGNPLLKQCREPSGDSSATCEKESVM
Test: Inhibitor dissociation kinetics by ligand displacement with alanine (rapid solution exchange)
Format: cell-based
Protocol: Fig. 2. […] (A) Electrophysiological recordings obtained after application of alanine (red trace) and increasing concentrations of Lc-BPE (black traces). The times of application of alanine or Lc-BPE are shown by a gray bar (top). (B and C) Lc-BPE inhibitor dose–response relationships for rASCT2 and hASCT2, respectively. […] Currents were normalized to the current recorded after application of 10 µM inhibitor concentration. (D) Inhibition of glutamine uptake (5 µM external concentration) in the presence of varying concentration of Lc-BPE and 5 µM glutamine measured in proteoliposomes reconstituted with purified hASCT2. […] Errors bars represent SEM from at least two biologically independent measurements. (E) Current recorded after rapid solution exchange from extracellular buffer (control, gray bar, black trace) to a solution containing buffer + 5 mM alanine (white bar). For the red trace, the cell was preincubated with 10 µM Lc-BPE (red bar, red trace) followed by rapid application of 5 mM alanine. All current recordings were performed at 0 mV in the presence of 130 mM NaSCN internal and 140 mM NaCl external (homoexchange) solutions. […]
To test this, we measured the dissociation kinetics of Lc-BPE using a ligand displacement approach. First, rASCT2-expressing cells were preincubated with a saturating solution of Lc-BPE (10 µM), and subsequently the inhibitor was displaced using a supersaturating concentration of the substrate L-alanine (5 mM) (Fig. 2 E and F).

[1] = preincubation with 10 µM inhibitor, displaced with 5 mM alanine

O=C(O[C@@H]1CN[C@H](C(=O)O)C1)c1ccc(-c2ccccc2)cc1 [Lc-BPE, L-cis hydroxyproline biphenyl ester]
slowing of activation of the anion current by alanine after preincubation (10 µM inhibitor preincubation, 5 mM alanine): more than sixfold | rate constant kobs, mean (single-exponential fit) (preapplied 10 µM inhibitor followed by 5 mM alanine, 0 mV): 4.9 ± 0.2 s⁻¹ | rate constant for dissociation [1]: 2.16 s⁻¹ | residence time in the rASCT2 binding site [1]: ~500 ms

Source: article PMC8449414, “Rational design of ASCT2 inhibitors using an integrated experimental-computational approach” (Proceedings of the National Academy of Sciences of the …, 2021)
